Data set [1] concerns the target T1, hOR17-4 (Homo sapiens, UniProt P34982).
T1 sequence (P34982 1-312): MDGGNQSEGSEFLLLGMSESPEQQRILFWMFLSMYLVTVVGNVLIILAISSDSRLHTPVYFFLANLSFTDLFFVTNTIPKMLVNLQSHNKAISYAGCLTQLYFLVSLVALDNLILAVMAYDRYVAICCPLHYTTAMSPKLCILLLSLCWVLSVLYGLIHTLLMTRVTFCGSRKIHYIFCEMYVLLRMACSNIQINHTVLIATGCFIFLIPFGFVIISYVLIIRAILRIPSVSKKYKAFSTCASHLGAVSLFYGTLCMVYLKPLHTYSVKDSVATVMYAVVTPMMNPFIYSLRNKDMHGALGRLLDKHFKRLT
Nature of the data set: Surface plasmon resonance (Biacore A100) odorant binding assay. Details: made in house; host or cells: cell-free expression, wheat germ extract (Roche RTS); uncleaned lysate supernatant captured on the chip. The conditions noted are these: SPR. As for the experimental part: All odorant binding experiments were performed on a Biacore™ A100 (GE Healthcare, Uppsala, Sweden) at 25° C. A Biacore™ A100 was used in the present studies since it has a parallel flow configuration thus allowing assay development e.g. solubilization conditions to be tested and optimized in parallel in a multiplexed format. The sensor chip CM4, amine coupling kit, HBS (10 mM Hepes, 0.15 M NaCl, pH 7.4) and PBS were from (GE Healthcare, Uppsala, Sweden).
The anti Rho-tag antibody 1D4 at 40 μg/ml in 10 mM sodium acetate pH 5.5 was immobilized onto a series S sensor chip using standard amine-coupling chemistry in HBS running buffer at 10 μl/min (33). The amount of coupled 1D4 was about 5500 RU. Control surfaces were prepared similarly without protein derivatization and utilized as a reference surfaces for compound binding experiments.
Cell-free lysate containing the expressed olfactory receptor was centrifuged for […] at 14000×g at 4° C., to remove larger particles. The supernatant, containing about 0.6 mg/ml olfactory receptor, was immediately captured on the surface plasmon resonance (SPR) chip using PBS, 0.1% CHAPS, 0.02% CHS, 0.1% DDM and 1% (v/v) ethanol as running buffer at 10 μl/min.
Fresh odorant lilial solutions were made as follows. […]
For orientation: In SPR one partner is held on a chip, and binding of the other changes the refractive index at the surface.

Data set [2] concerns the target T1, hOR17-4. The conditions noted are these: cited from earlier work.
Data set [3] in a line: Odorant solubility in SPR running buffer, inferred from the binding response. It counts as physicochemical. As for the experimental part:
Fresh odorant lilial solutions were made as follows. Pure odorant was diluted in ethanol to 0.5 M. This solution was diluted 67 times in PBS, 0.1% CHAPS, 0.02% CHS, 0.1% DDM to obtain a 7.5 mM odorant solution in running buffer with 1% (v/v) ethanol. Further dilutions were made in running buffer containing 1% (v/v) ethanol to obtain a concentration series of 5 μM, 10 μM, 20 μM and 40 μM of odorant lilial.
For the actual binding measurements, the odorant concentration series were injected from low to high concentration over control and derivatized surfaces for 30 seconds with a flow rate of 60 μl/min. Zero concentration blank buffer cycles were included as negative control samples. Solvent correction procedures were included to compensate for any DMSO related bulk refractive index variations and performed as described previously^(34). Non-specific binding effects to sensor surface CM4 were absent for all analyses reported.

The structures appear in SMILES notation.

In the case of `CC(C=O)Cc1ccc(C(C)(C)C)cc1` (stereo not drawn) [lilial], on hOR17-4 [1] (lilial 5-40 μM, 25° C., receptor from cell-free production captured via 1D4 antibody), the “dose response binding (RU)” value was “binding response increases by increasing odorant concentration”. At hOR17-4 [1] (exact value could not be determined because of low solubility), the “binding constant (approximately estimated)” value is reported as “within micromolar range”. Moreover, the “agonist activity at hOR17-4” value at hOR17-4 [2] (in vivo studies) is recorded as “known agonist”. The “affinity constant reported in vivo” value at hOR17-4 [2] (in vivo) is given as “micromolar range”. Also, in data set [3] (SPR running buffer), the “solubility at high concentrations” value is reported as “very low”. Moreover, in data set [3] (running buffer PBS, 0.1% CHAPS, 0.02% CHS, 0.1% DDM, 1% (v/v) ethanol), the “concentration above which the response does not reach equilibrium (odorant starts to fall out of solution)” value is reported as “above 10 μM”.

The values above are taken from patent US9714941B2, “Bio-sensing nanodevice” (Massachusetts Institute of Technology, priority 2007, dated 2017).
